# Data taken from patent US8906935B2, “Thiazolyl- and oxazolyl-isoquinolinones and methods for using them” (priority 2008, dated 2014).
# Structures can show the parent of a compound that is named as a salt.
# Biological target: T1, hrPARP-1 (human recombinant) (Homo sapiens, UniProt P09874)
# T1 construct: purchased Trevigen
# Experiment: Functional assessment of human PARP-1 enzymatic activity
# Assay type: biochemical
# Details: 1 U hrPARP-1, 15 μg/mL activated DNA, 5 μM NAD+, 20 min room temperature, fluorescence readout
# Procedure: Functional Assessment of Human PARP-1 Enzymatic Activity
# hrPARP-1 (human recombinant, Trevigen), Activated DNA (Sigma), 6(5H)-phenanthridinone (PND), (Sigma), NAD+ (Calbiochem), PARP-1 assay buffer (50 mM Tris, 2 mM MgCl2, pH 8.0), 20% acetophenone in EtOH, 2 M KOH 88% formic acid, 110° C. oven, Flexstation Plate Reader.
# Compound plates were prepared by making a series of 1:3 dilutions for each tested compound, 10 steps of each at 20 μL in DMSO starting from a concentration of 5 mM. NAD^+ (39 μL of a 6.4 μM solution) were added to each well of a 96-well flat bottom fluorescent assay plate. Test compound (1 μL) was added to each well. To initiate the reaction, 10 μL of PARP (contains 5 U of PARP and 75 μg/mL activated DNA) was added with a final 1 U hrPARP-1, 15 μg/mL activated DNA and 5 μM of NAD^+. The highest concentration used for test compounds was 100 μM. The plates were incubated at room temperature on a shaker, After 20 min, 20 μL of 2 M KOH and 20 μL of 20% acetophenone were added. The plate was incubated 10 min. at 4° C., and 90 μL of 88% formic acid was added. After incubating in a 110° C. oven for 5 min, the plate was cooled to room temperature and read of a Flexstation Plate Reader (excitation at 360 nm, emission at 445 nm).
# LSW data analysis software was used to generate PARP-1 IC50s.
# T1 sequence (P09874 whole entry): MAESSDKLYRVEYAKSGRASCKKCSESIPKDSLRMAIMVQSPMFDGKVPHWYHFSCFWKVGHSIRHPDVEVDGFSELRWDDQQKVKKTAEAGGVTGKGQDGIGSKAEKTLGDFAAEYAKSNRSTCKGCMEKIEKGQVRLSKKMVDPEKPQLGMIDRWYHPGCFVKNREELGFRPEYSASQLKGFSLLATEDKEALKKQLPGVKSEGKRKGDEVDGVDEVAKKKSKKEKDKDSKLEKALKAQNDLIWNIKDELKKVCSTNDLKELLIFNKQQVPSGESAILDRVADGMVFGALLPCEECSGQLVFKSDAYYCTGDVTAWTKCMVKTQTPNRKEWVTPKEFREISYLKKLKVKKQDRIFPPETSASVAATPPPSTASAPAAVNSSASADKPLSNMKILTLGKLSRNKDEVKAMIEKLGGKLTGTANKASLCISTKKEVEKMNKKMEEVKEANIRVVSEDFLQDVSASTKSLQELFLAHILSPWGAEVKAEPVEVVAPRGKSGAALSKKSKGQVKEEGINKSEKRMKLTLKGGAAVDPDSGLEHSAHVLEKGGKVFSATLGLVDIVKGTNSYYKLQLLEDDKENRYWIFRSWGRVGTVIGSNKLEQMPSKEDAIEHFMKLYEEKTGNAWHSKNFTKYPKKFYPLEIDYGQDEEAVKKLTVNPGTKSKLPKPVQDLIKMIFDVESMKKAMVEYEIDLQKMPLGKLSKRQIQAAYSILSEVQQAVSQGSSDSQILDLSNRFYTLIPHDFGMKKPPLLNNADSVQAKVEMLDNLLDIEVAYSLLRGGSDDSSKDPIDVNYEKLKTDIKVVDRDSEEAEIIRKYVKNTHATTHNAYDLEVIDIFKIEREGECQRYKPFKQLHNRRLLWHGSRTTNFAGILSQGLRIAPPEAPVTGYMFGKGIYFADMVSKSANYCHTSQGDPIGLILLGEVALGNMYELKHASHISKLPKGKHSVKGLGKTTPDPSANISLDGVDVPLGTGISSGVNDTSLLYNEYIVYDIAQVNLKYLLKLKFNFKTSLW
row,SMILES,IC50 [nM]
1,"O=c1[nH]c2sc(CN3CCCCC3)nc2c2c(O)cccc12 [Example 6, 9-Hydroxy-2-(piperidin-1-ylmethyl)[1,3]thiazolo[5,4-c]isoquinolin-5(4H)-one]",1370
2,"CN(C)Cc1nc2c([nH]c(=O)c3ccccc32)s1 [Example 1, 2-[(Dimethylamino)methyl][1,3]thiazolo[5,4-c]isoquinolin-5(4H)-one hydrochloride]",378
3,"O=c1[nH]c2sc(CN3CCCC3)nc2c2c(O)cccc12 [Example 7, 9-Hydroxy-2-(pyrrolidin-1-ylmethyl)[1,3]thiazolo[5,4-c]isoquinolin-5(4H)-one]",111
4,"CN(C)CCc1nc2c([nH]c(=O)c3ccccc32)s1 [Example 3, 2-(2-(Dimethylamino)ethyl)thiazolo[5,4-c]isoquinolin-5(4H)-one]",358
5,"O=c1[nH]c2sc(CN3CCC[C@@H]3C(F)(F)F)nc2c2c(O)cccc12 [Example 12, 9-Hydroxy-2-{[(2R)-2-(trifluoromethyl)pyrrolidin-1-yl]methyl}[1,3]thiazolo[5,4-c]isoquinolin-5(4H)-one]",3500
6,"O=c1[nH]c2sc(CN3CCOCC3)nc2c2c(O)cccc12 [Example 5, 9-Hydroxy-2-(morpholin-4-ylmethyl)[1,3]thiazolo[5,4-c]isoquinolin-5(4H)-one]",18.3
7,"CC1CCCN1Cc1nc2c([nH]c(=O)c3cccc(O)c32)s1 (stereo not shown) [Example 11, 9-Hydroxy-2-[(2-methylpyrrolidin-1-yl)methyl][1,3]thiazolo[5,4-c]isoquinolin-5(4H)-one]",747
8,"CN(C)Cc1nc2c([nH]c(=O)c3cccc(O)c32)s1 [Example 4, 2-((Dimethylamino)methyl)-9-hydroxythiazolo[5,4-c]isoquinolin-5(4H)-one]",99
9,"CN(C)CC#Cc1nc2c([nH]c(=O)c3ccccc32)s1 [Example 2, 2-[3-(Dimethylamino)prop-1-yn-1-yl][1,3]thiazolo[5,4-c]isoquinolin-5(4H)-one]",414
10,"CN(C)[C@@H]1CCN(Cc2nc3c([nH]c(=O)c4cccc(O)c43)s2)C1 [Example 8, 2-{[(3R)-3-(dimethylamino)pyrrolidin-1-yl]methyl}-9-hydroxy[1,3]thiazolo[5,4-c]isoquinolin-5(4H)-one]",223
11,"C[C@@H]1CN(Cc2nc3c([nH]c(=O)c4cccc(O)c43)s2)C[C@H](C)O1 [Example 10, 2-{[(2R,6S)-2,6-Dimethylmorpholin-4-yl]methyl}-9-hydroxy[1,3]thiazolo[5,4-c]isoquinolin-5(4H)-one]",3090
12,"C[C@@H]1CCC[C@H](C)N1Cc1nc2c([nH]c(=O)c3cccc(O)c32)s1 [Example 13, 2-{[(2R,6S)-2,6-Dimethylpiperidin-1-yl]methyl}-9-hydroxy[1,3]thiazolo[5,4-c]isoquinolin-5(4H)-one]",1500
13,"O=c1[nH]c2sc(CN3CCCC4CCCCC43)nc2c2c(O)cccc12 (stereo not shown) [Example 9, 9-Hydroxy-2-(octahydroquinolin-1(2H)-ylmethyl)[1,3]thiazolo[5,4-c]isoquinolin-5(4H)-one]",2450
